The results in this text go back to patent publication US20240409585A1, “MACROCYCLIC IMMUNOMODULATORS” (priority 2021, published 2024).

For orientation: IC50 means the concentration that inhibits the measured activity by half.

Bridge positions count the residues as written; N and C are the ends. Square brackets hold non-standard residues; d marks the D form. Peptide text beside a SMILES is read from it. * marks the point of attachment. ξ: configuration not given here. Phe(4-COOH) = N[C@@H](Cc1ccc(C(=O)O)cc1)C(=O)O; Bip = N[C@@H](Cc1ccc(-c2ccccc2)cc1)C(=O)O; Phe(3-OMe) = COc1cccc(C[C@H](N)C(=O)O)c1; Phe(3-Me) = Cc1cccc(C[C@H](N)C(=O)O)c1; Phe(4-F) = N[C@@H](Cc1ccc(F)cc1)C(=O)O; Bta = N[C@@H](Cc1csc2ccccc12)C(=O)O; Val(3-OH) = CC(C)(O)[C@H](N)C(=O)O; aIle = CC[C@@H](C)[C@H](N)C(=O)O; 4Pal = N[C@@H](Cc1ccncc1)C(=O)O; Cha = N[C@@H](CC1CCCCC1)C(=O)O; Thr(3ξ) = CC(O)[C@H](N)C(=O)O; NMeNle = CCCC[C@H](NC)C(=O)O; NMeNva = CCC[C@H](NC)C(=O)O; Carboxymethyl = O=C(O)C*; NMeA = CN[C@@H](C)C(=O)O; Dab = NCC[C@H](N)C(=O)O; Dap = NC[C@H](N)C(=O)O

T1 sequence (Q15116 25-288): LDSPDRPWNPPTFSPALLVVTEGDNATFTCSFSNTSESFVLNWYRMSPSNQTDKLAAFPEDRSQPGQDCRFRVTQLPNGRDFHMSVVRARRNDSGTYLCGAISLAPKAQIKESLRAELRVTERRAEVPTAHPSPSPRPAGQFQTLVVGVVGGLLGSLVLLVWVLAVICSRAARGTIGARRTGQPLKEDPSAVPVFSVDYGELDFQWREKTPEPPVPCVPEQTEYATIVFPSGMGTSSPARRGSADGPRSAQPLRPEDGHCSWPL

The experiment concerns the target T1, PE-labeled human PD-L1-Ig binding to Jurkat cell line over-expressing human PD-1 (Jurkat-PD-1) (Homo sapiens, UniProt Q15116).
T1 construct: expressed in transfected cells; host or cells: Jurkat
As to the kind of experiment: Jurkat-PD-1 Cell Binding High-Content Screening Assay (CBA): Method 1. As to conditions: Jurkat-hPD-1 cells, PE-labeled PD-L1-Ig 20 nM final; read-out: Jurkat HPDL1 PD1 IC50 (uM) (Method 1).
For the compound `CCCC[C@H]1C(=O)N[C@@H](Cc2ccc(C(=O)O)cc2)C(=O)N[C@@H](CC(=O)O)C(=O)N[C@@H](Cc2cccc(C)c2)C(=O)N[C@@H](Cc2ccc(C(=O)O)cc2)C(=O)N[C@@H](Cc2ccc(-c3ccccc3)cc2)C(=O)N[C@@H](Cc2ccc(C(=O)O)cc2)C(=O)N(C)[C@@H](C)C(=O)N[C@H](CC(C)C)C(=O)N[C@@H](CCN)C(=O)N[C@@H](CC2CCCCC2)C(=O)N[C@@H](C(C)(C)O)C(=O)N[C@@H](CO)C(=O)N[C@H](C(=O)N[C@@H](CCN)C(N)=O)CSCC(=O)N1C` [Compound 2205] ({CH2CO}-[NMeNle][Phe(4-COOH)]D[Phe(3-Me)][Phe(4-COOH)][Bip][Phe(4-COOH)][NMeA][dL][Dab][Cha][Val(3-OH)]SC[Dab]-NH2; thioether N-14), the IC50 turned out to be 0.06 µM. For the compound `Cc1cccc(C[C@@H]2NC(=O)[C@H](CC(=O)O)NC(=O)[C@H](Cc3ccc(C(=O)O)cc3)NC(=O)[C@H](Cc3ccc(F)cc3)NC(=O)CSC[C@@H](C(=O)N[C@@H](CCN)C(N)=O)NC(=O)[C@H](CCC(=O)O)NC(=O)[C@H](C(C)(C)O)NC(=O)[C@H](CC3CCCCC3)NC(=O)[C@H](CCN)NC(=O)[C@@H](CC(C)C)NC(=O)[C@H](C)N(C)C(=O)[C@H](Cc3ccc(C(=O)O)cc3)NC(=O)[C@H](Cc3ccc(-c4ccccc4)cc3)NC(=O)[C@H](Cc3ccc(C(=O)O)cc3)NC2=O)c1` [Compound 2207] ({CH2CO}-[Phe(4-F)][Phe(4-COOH)]D[Phe(3-Me)][Phe(4-COOH)][Bip][Phe(4-COOH)][NMeA][dL][Dab][Cha][Val(3-OH)]EC[Dab]-NH2; thioether N-14), the IC50 is 0.01 µM. To `CC(C)C[C@@H]1NC(=O)[C@H](CCCNC(=N)N)NC(=O)[C@H](Cc2csc3ccccc23)NC(=O)[C@H](C)N(C)C(=O)[C@H](CCCNC(=N)N)NC(=O)[C@H](Cc2ccc(-c3ccccc3)cc2)NC(=O)[C@H](C(C)C)NC(=O)[C@H](Cc2c[nH]c3ccccc23)NC(=O)[C@H](CC(=O)O)NC(=O)[C@H](Cc2ccc(O)cc2)NC(=O)[C@H](Cc2cnc[nH]2)NC(=O)CSC[C@@H](C(=O)N[C@@H](C)C(N)=O)NC(=O)[C@H](CO)NC(=O)[C@H](C(C)C)NC1=O` [Compound 1040] ({CH2CO}-HYDWV[Bip]R[NMeA][Bta]RLVSCA-NH2; thioether N-14) belongs 0.17 µM; to `CC[C@H](C)[C@@H]1NC(=O)[C@H](Cc2ccc(-c3ccccc3)cc2)NC(=O)[C@H](C(C)(C)O)NC(=O)[C@H](Cc2cccc(C)c2)NC(=O)[C@H](CC(=O)O)NC(=O)[C@H](Cc2ccc(O)cc2)NC(=O)[C@H](CC(N)=O)NC(=O)CSC[C@@H](C(=O)N[C@@H](CCN)C(N)=O)NC(=O)[C@H]([C@@H](C)O)NC(=O)[C@H](C(C)(C)O)NC(=O)[C@H](CC2CCCCC2)NC(=O)[C@H](CCN)NC(=O)[C@@H](CC(C)C)NC(=O)[C@H](C)N(C)C1=O` [Compound 1693] ({CH2CO}-NYD[Phe(3-Me)][Val(3-OH)][Bip]I[NMeA][dL][Dab][Cha][Val(3-OH)]TC[Dab]-NH2; thioether N-14), 0.02 µM; to `COc1cccc(C[C@@H]2NC(=O)[C@H](CN)NC(=O)CSC[C@@H](C(=O)N[C@@H](C)C(N)=O)NC(=O)[C@H]([C@@H](C)O)NC(=O)[C@H](C(C)C)NC(=O)[C@H](CC(C)C)NC(=O)[C@H](CCN)NC(=O)[C@@H](CC(C)C)NC(=O)[C@H](C)N(C)C(=O)[C@H](CCCNC(=N)N)NC(=O)[C@H](Cc3ccc(-c4ccccc4)cc3)NC(=O)[C@H](C(C)C)NC(=O)[C@H](Cc3c[nH]c4ccccc34)NC(=O)[C@H](CC(=O)O)NC2=O)c1` [Compound 1453] ({CH2CO}-[Dap][Phe(3-OMe)]DWV[Bip]R[NMeA][dL][Dab]LVTCA-NH2; thioether N-14), 0.08 µM. For the compound `CC[C@H](C)[C@@H]1NC(=O)[C@H](Cc2ccc(-c3ccccc3)cc2)NC(=O)[C@H](C(C)(C)O)NC(=O)[C@H](Cc2cccc(C)c2)NC(=O)[C@H](CC(=O)O)NC(=O)[C@H](Cc2ccc(O)cc2)NC(=O)[C@H](CC(N)=O)NC(=O)CSC[C@@H](C(=O)N[C@@H](CCN)C(N)=O)NC(=O)[C@H]([C@@H](C)O)NC(=O)[C@H](C(C)(C)O)NC(=O)[C@H](CC(C)C)NC(=O)[C@H](CCN)NC(=O)[C@@H](CC(C)C)NC(=O)[C@H](C)N(C)C1=O` [Compound 1687] ({CH2CO}-NYD[Phe(3-Me)][Val(3-OH)][Bip]I[NMeA][dL][Dab]L[Val(3-OH)]TC[Dab]-NH2; thioether N-14), the IC50 amounted to 0.11 µM.

With `Cc1cccc(C[C@@H]2NC(=O)[C@H](CC(=O)O)NC(=O)[C@H](Cc3ccc(OCC(=O)O)cc3)NC(=O)[C@H](C(C)O)NC(=O)CSC[C@@H](C(=O)N[C@@H](CCN)C(N)=O)NC(=O)[C@H](CO)NC(=O)[C@H](C(C)(C)O)NC(=O)[C@H](CC3CCCCC3)NC(=O)[C@H](CCN)NC(=O)[C@@H](CC(C)C)NC(=O)[C@H](C)N(C)C(=O)[C@H](Cc3ccc(OCC(=O)O)cc3)NC(=O)[C@H](Cc3ccc(-c4ccccc4)cc3)NC(=O)[C@H](Cc3ccc(C(=O)O)cc3)NC2=O)c1` (stereo partly drawn) [Compound 2150] ({CH2CO}-[Thr(3ξ)]Y(Carboxymethyl)D[Phe(3-Me)][Phe(4-COOH)][Bip]Y(Carboxymethyl)[NMeA][dL][Dab][Cha][Val(3-OH)]SC[Dab]-NH2; thioether N-14), the IC50 was found to be 0.01 µM. Turning to `CC(=O)NCCCC[C@@H]1NC(=O)[C@H](C(C)C)NC(=O)[C@H](CC2CCCCC2)NC(=O)[C@H](CCC(=O)O)NC(=O)[C@@H](CC(C)C)NC(=O)[C@H](C)N(C)C(=O)[C@H](Cc2cnc[nH]2)NC(=O)[C@H](Cc2ccc(-c3ccccc3)cc2)NC(=O)[C@H](CC(C)C)NC(=O)[C@H](Cc2cccc(C)c2)NC(=O)[C@H](CC(=O)O)NC(=O)[C@H](Cc2ccc(OCC(=O)O)cc2)NC(=O)[C@H](Cc2ccc(OCC(=O)O)cc2)NC(=O)CSC[C@@H](C(=O)N[C@H](C)C(N)=O)NC1=O` [Compound 2124] ({CH2CO}-Y(Carboxymethyl)Y(Carboxymethyl)D[Phe(3-Me)]L[Bip]H[NMeA][dL]E[Cha]VK(Ac)C[dA]-NH2; thioether N-14), the IC50 was found to be 0.04 µM. With `CCC[C@H]1C(=O)N[C@H](CC(C)C)C(=O)N[C@@H](CCN)C(=O)N[C@@H](CC(C)C)C(=O)N[C@@H](C(C)C)C(=O)N[C@@H]([C@@H](C)O)C(=O)N[C@H](C(=O)N[C@@H](C)C(N)=O)CSCC(=O)N[C@@H](CC(N)=O)C(=O)N[C@@H](Cc2ccc(O)cc2)C(=O)N[C@@H](CC(=O)O)C(=O)N[C@@H](Cc2c[nH]c3ccccc23)C(=O)N[C@@H](C(C)C)C(=O)N[C@@H](Cc2ccc(-c3ccccc3)cc2)C(=O)N[C@@H](C(C)C)C(=O)N1C` [Compound 1369] ({CH2CO}-NYDWV[Bip]V[NMeNva][dL][Dab]LVTCA-NH2; thioether N-14), the IC50 turned out to be 0.03 µM. As to `CC[C@@H](C)[C@@H]1NC(=O)[C@H](Cc2ccc(-c3ccccc3)cc2)NC(=O)[C@H](CC(C)C)NC(=O)[C@H](Cc2cccc(C)c2)NC(=O)[C@H](CC(=O)O)NC(=O)[C@H](Cc2ccc(OCC(=O)O)cc2)NC(=O)[C@H](CN)NC(=O)CSC[C@@H](C(N)=O)NC(=O)[C@H](CO)NC(=O)[C@H](C(C)C)NC(=O)[C@H](CC(C)C)NC(=O)[C@H](CC(N)=O)NC(=O)[C@@H](CC(C)C)NC(=O)[C@H](C)N(C)C1=O` [Compound 1640] ({CH2CO}-[Dap]Y(Carboxymethyl)D[Phe(3-Me)]L[Bip][aIle][NMeA][dL]NLVSC-NH2; thioether N-14), the IC50 was found to be 0.1 µM. Turning to `CC(C)C[C@@H]1NC(=O)[C@H](CCCNC(=N)N)NC(=O)[C@@H](Cc2ccccc2)NC(=O)[C@H](C)N(C)C(=O)[C@H](CCCNC(=N)N)NC(=O)[C@H](Cc2ccc(-c3ccccc3)cc2)NC(=O)[C@H](C(C)C)NC(=O)[C@H](Cc2c[nH]c3ccccc23)NC(=O)[C@H](CC(=O)O)NC(=O)[C@H](Cc2ccncc2)NC(=O)[C@H](CC(N)=O)NC(=O)CSC[C@@H](C(=O)N[C@@H](C)C(N)=O)NC(=O)[C@H]([C@@H](C)O)NC(=O)[C@H](C(C)C)NC1=O` [Compound 1162] ({CH2CO}-N[4Pal]DWV[Bip]R[NMeA][dF]RLVTCA-NH2; thioether N-14), the IC50 was found to be 0.22 µM. Consider `CC(C)C[C@@H]1NC(=O)[C@H](Cc2c[nH]c3ccccc23)NC(=O)[C@H](CC(=O)O)NC(=O)[C@H](Cc2ccc(C(=O)O)cc2)NC(=O)[C@H](Cc2ccc(OCC(=O)O)cc2)NC(=O)CSC[C@@H](C(N)=O)NC(=O)[C@H](CO)NC(=O)[C@H](C(C)C)NC(=O)[C@H](CC2CCCCC2)NC(=O)[C@H](CCN)NC(=O)[C@@H](CC(C)C)NC(=O)[C@H](C)N(C)C(=O)[C@H](C(C)C)NC(=O)[C@H](Cc2ccc(-c3ccccc3)cc2)NC1=O` [Compound 1426] ({CH2CO}-Y(Carboxymethyl)[Phe(4-COOH)]DWL[Bip]V[NMeA][dL][Dab][Cha]VSC-NH2; thioether N-14), for which the IC50 amounted to 0.01 µM. To `CC[C@H](C)[C@@H]1NC(=O)[C@H](Cc2ccc(-c3ccccc3)cc2)NC(=O)[C@H](C(C)(C)O)NC(=O)[C@H](Cc2cccc(C)c2)NC(=O)[C@H](CC(=O)O)NC(=O)[C@H](Cc2ccc(O)cc2)NC(=O)[C@H](CC(N)=O)NC(=O)CSC[C@@H](C(=O)N[C@@H](CCN)C(N)=O)NC(=O)[C@H]([C@@H](C)O)NC(=O)[C@H](C(C)C)NC(=O)[C@H](CC(C)C)NC(=O)[C@H](CCN)NC(=O)[C@@H](CC(C)C)NC(=O)[C@H](C)N(C)C1=O` [Compound 1686] ({CH2CO}-NYD[Phe(3-Me)][Val(3-OH)][Bip]I[NMeA][dL][Dab]LVTC[Dab]-NH2; thioether N-14) belongs 0.16 µM; to `CC(C)C[C@@H]1NC(=O)[C@H](Cc2c[nH]c3ccccc23)NC(=O)[C@H](CC(=O)O)NC(=O)[C@H](Cc2ccc(O)cc2)NC(=O)[C@H](Cc2ccccc2)NC(=O)CSC[C@@H](C(=O)NCC(N)=O)NC(=O)[C@H]([C@@H](C)O)NC(=O)[C@H](C(C)C)NC(=O)[C@H](CC(C)C)NC(=O)[C@H](CC(N)=O)NC(=O)[C@@H](C)NC(=O)[C@H](C)N(C)C(=O)[C@H](C(C)C)NC(=O)[C@H](Cc2ccc(-c3ccccc3)cc2)NC1=O` [Compound 1476] ({CH2CO}-FYDWL[Bip]V[NMeA][dA]NLVTCG-NH2; thioether N-14), 0.06 µM.
